In brackets after ≈: the same amount, converted by molar mass. Like-named read-outs stand apart in the source and are kept apart here.
How the values were obtained:
Jack Bean Urease = Jack Bean Urease (Canavalia ensiformis, UniProt P07374); assay: biochemical
Experimental: Urease inhibitory potential for each synthesisized compound (T1–T20) was evaluated using Jack Bean Urease by Indophenol method (Table 5, Figs. 9, 10, 11). 250 µl of jack bean urease (4U) was mixed with 250 µl of different synthesized test compounds and standard of different concentrations [dissolved in DMSO/H2O mixture (1:1 v/v)]. The mixture was pre-incubated for 1 h at 37 °C in test tubes. 2 ml of 100 mM phosphate buffer (pH 6.8) containing 500 mM urea and 0.002% phenol red as an indicator were added in sample test tubes after pre incubation and again incubated at room temperature. Absorbance of reaction mixture was recorded by ELISA at 570 nm. Ammonium carbonate increased the pH of phosphate buffer from 6.8 to 7.7 which was produced from urea by urease enzyme and the end peak was measured by the colour of phenol red indicator [16].
The percentage inhibition of urease enzyme was calculated by using following formula: I%=Acontrol-Asample/Acontrol×100,
where Acontrol is the absorbance of the control; Asample is the absorbance of the test compound.

Escherichia coli = assay: In vitro antimicrobial screening, tube dilution method; assay type: cell-based; details: E. coli, Gram −ve, nutrient broth, 37 ± 1 °C, 24 h, read-out: Minimum inhibitory concentration
Experimental: (§1) The in vitro antimicrobial screening of the synthesized 1,2,4-triazole derivatives (T1–T20) in μM was determined against Gram-positive Bacillus subtilis, […], Gram-negative Escherichia coli bacterium and fungal strains Candida albicans and Aspergillus niger by tube dilution method using ciprofloxacin, amoxycillin (antibacterial) and fluconazole (antifungal) as reference drugs. DMSO was used to dissolve the reference and sample derivatives (T1–T20). Dilutions were prepared in nutrient broth (I.P.) for bacterial (incubated at 37 ± 1 °C for 24 h) and Sabouraud dextrose broth (I.P.) for fungal species (37 ± 1 °C for 48 h for C. albicans) and (25 ± 1 °C for 7 days for A. niger) (Table 3, Figs. 4 and 5).

Pseudomonas aeruginosa = assay: as above; assay type: cell-based; details: P. aeruginosa, Gram −ve, nutrient broth, 37 ± 1 °C, 24 h, read-out: Minimum inhibitory concentration
Experimental: as §1

Bacillus subtilis = assay: as above; assay type: cell-based; details: Bacillus subtilis; B. substilis, Gram +ve; nutrient broth, 37 ± 1 °C, 24 h; read-out: Minimum inhibitory concentration
Experimental: as §1

Aspergillus niger = assay: In vitro antifungal screening, tube dilution method; assay type: cell-based; details: Aspergillus niger, 168 h; A. niger; Sabouraud dextrose broth, 25 ± 1 °C, 7 days; read-out: Minimum inhibitory concentration
Experimental: as §1

Candida albicans = assay: as above; assay type: cell-based; details: Candida albicans; C. albican; Sabouraud dextrose broth, 37 ± 1 °C, 48 h; read-out: Minimum inhibitory concentration
Experimental: as §1

[1] = DPPH free radical scavenging activity; details: for IC50: DPPH antioxidant; for % inhibition: DPPH
Experimental: In the DPPH free radical scavenging activity, compounds (T1–T20) were evaluated for their free radical scavenging activity with ascorbic acid as standard compound. The scavenging effect increased with the increasing concentrations of sample compounds. DPPH is relatively stable nitrogen centered free radical that easily accepts an electron or hydrogen radical to become a stable diamagnetic molecule. DPPH radicals react with suitable reducing agents as a result of which the electrons become paired off forming the corresponding hydrazine. The solution therefore loses colour stoichometrically depending on the number of electrons taken up. […] The sample solutions were incubated for 30 min at room temperature in dark place and after then absorbance was recorded against the blank solution at 517 nm. The relative percent of DPPH scavenging activity was calculated according to the following equation: I%=Acontrol-Asample/Acontrol×100,
where Acontrol is the absorbance of the control, Asample is the absorbance of the test compound.

[2] = test system: HCT116 (human colon cancer cells); assay: Anticancer evaluation, SRB assay; assay type: cell-based; details: Homo sapiens, HCT-116
Experimental: HCT116 (human colon cancer cells) were seeded at 2500 cells/well (96 well plate), allowed to attach overnight, exposed to the respective compounds for 72 h and subjected to SRB assay (570 nm). Data represent mean IC50 of at least triplicates. The compounds were all dissolved in DMSO as stock of 100 mg/ml. […] The highest concentration of each compound tested (100 μg/ml) contained only 0.1% DMSO.

[3] = HCT116, 72 h, SRB, mean of at least triplicates

Jack Bean Urease, sequence (P07374 whole entry, looked up): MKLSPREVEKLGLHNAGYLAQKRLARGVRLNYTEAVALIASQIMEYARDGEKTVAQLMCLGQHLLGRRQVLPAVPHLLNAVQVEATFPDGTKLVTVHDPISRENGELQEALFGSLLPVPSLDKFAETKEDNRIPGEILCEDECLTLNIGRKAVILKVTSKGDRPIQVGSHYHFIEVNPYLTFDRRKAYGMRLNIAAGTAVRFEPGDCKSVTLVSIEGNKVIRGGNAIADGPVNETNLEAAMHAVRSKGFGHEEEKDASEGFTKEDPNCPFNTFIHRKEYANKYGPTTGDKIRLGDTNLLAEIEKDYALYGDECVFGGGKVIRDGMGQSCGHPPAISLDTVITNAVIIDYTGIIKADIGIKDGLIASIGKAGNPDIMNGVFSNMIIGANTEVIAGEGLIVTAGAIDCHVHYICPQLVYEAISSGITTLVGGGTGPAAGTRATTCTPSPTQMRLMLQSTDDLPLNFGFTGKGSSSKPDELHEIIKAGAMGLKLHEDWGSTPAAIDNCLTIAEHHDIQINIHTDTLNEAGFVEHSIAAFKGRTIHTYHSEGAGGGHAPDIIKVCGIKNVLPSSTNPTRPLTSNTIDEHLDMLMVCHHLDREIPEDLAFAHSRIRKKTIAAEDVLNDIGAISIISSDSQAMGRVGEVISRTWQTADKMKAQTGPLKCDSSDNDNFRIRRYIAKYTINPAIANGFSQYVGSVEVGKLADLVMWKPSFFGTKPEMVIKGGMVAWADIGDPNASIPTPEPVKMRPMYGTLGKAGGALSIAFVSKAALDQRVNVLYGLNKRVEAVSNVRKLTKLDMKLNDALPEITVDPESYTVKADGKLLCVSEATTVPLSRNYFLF

SMILES	IC50 (Jack Bean Urease)	inhibition at 25 µg/mL (Jack Bean Urease)	inhibition at 50 µg/mL (Jack Bean Urease)	inhibition at 75 µg/mL (Jack Bean Urease)	inhibition at 100 µg/mL (Jack Bean Urease)	MIC (Escherichia coli; Escherichia coli)	MIC (Pseudomonas aeruginosa; Pseudomonas aeruginosa)	MIC (Bacillus subtilis)	MIC (Aspergillus niger)	MIC (Candida albicans)	IC50 [1]	% inhibition ([1]; 25 µg/ml)	% inhibition ([1]; 50 µg/ml)	% inhibition ([1]; 75 µg/ml)	% inhibition ([1]; 100 µg/ml)	melting point	IC50 [2, 3]	MIC (Pseudomonas aeruginosa)	IC50 ([2]; HCT116, value given in dose-response figure)	MIC (Escherichia coli)
CCCCCCCCCCCCCCCc1nnc(S)n1N=Cc1ccccc1[N+](=O)[O-] [Compound T15]	133 µM	29%	37.1%	61.8%	73.1%	218 µM (≈ 100 µg/mL)	109 µM (≈ 50 µg/mL)	54.3 µM (≈ 25 µg/mL)	54.3 µM (≈ 25 µg/mL)	218 µM (≈ 100 µg/mL)	47.99 µg/mL (≈ 104 µM)	38.56%	50.64%	62.16%	80.56%	195 to 198 °C	> 218 µM	–	–	–
CCCCCCCCCCCCCCCc1nnc(S)n1N=Cc1ccc(Br)cc1 [Compound T14]	136 µM	41.7%	46.2%	50.5%	57.8%	101 µM (≈ 50 µg/mL)	101 µM (≈ 50 µg/mL)	50.6 µM (≈ 25 µg/mL)	101 µM (≈ 50 µg/mL)	203 µM (≈ 100 µg/mL)	37.52 µg/mL (≈ 76 µM)	37.56%	60.68%	85.79%	95.61%	193 to 196 °C	128 µM	–	–	–
CCCCCCCCCCCCCCCc1nnc(S)n1N=Cc1ccccc1 [Compound T1]	125 µM	25.8%	48%	72.9%	92%	241 µM (≈ 100 µg/mL)	241 µM (≈ 100 µg/mL)	120 µM (≈ 50 µg/mL)	120 µM (≈ 50 µg/mL)	241 µM (≈ 100 µg/mL)	46.83 µg/mL (≈ 113 µM)	25.45%	49.65%	69.67%	94.78%	184 to 187 °C	> 241 µM	–	–	–
CCCCCCCCCCCCCCCc1nnc(S)n1N=Cc1ccc(N(C)C)cc1 [Compound T9]	–	33.5%	53.7%	70.5%	92.7%	54.6 µM (≈ 25 µg/mL)	27.3 µM (≈ 12.5 µg/mL)	54.6 µM (≈ 25 µg/mL)	218 µM (≈ 100 µg/mL)	109 µM (≈ 50 µg/mL)	35.42 µg/mL (≈ 77.4 µM)	40.56%	60.67%	83.61%	92.16%	198 to 201 °C	> 218 µM	–	–	–
CCCCCCCCCCCCCCCc1nnc(S)n1N=Cc1ccccc1O [Compound T7]	121 µM	24%	46.9%	76.1%	91.9%	116 µM (≈ 50 µg/mL)	29 µM (≈ 12.5 µg/mL)	116 µM (≈ 50 µg/mL)	232 µM (≈ 100 µg/mL)	232 µM (≈ 100 µg/mL)	38.54 µg/mL (≈ 89.5 µM)	46.75%	52.56%	60.56%	70.41%	181 to 184 °C	3.25 µM	29.0 µM (≈ 12.5 µg/mL)	1.4 µg/mL	–
CCCCCCCCCCCCCCCc1nnc(S)n1N=Cc1ccc(Cl)cc1 [Compound T11]	122 µM	25%	42.5%	68.9%	92.7%	111 µM (≈ 50 µg/mL)	111 µM (≈ 50 µg/mL)	55.6 µM (≈ 25 µg/mL)	111 µM (≈ 50 µg/mL)	27.8 µM (≈ 12.5 µg/mL)	45.36 µg/mL (≈ 101 µM)	35.78%	52.89%	70.89%	89.9%	202 to 205 °C	> 223 µM	–	–	–
CCCCCCCCCCCCCCCc1nnc(S)n1N=Cc1cccc(Cl)c1 [Compound T10]	116 µM	27.9%	46.9%	70.9%	89.8%	111 µM (≈ 50 µg/mL)	55.6 µM (≈ 25 µg/mL)	55.6 µM (≈ 25 µg/mL)	55.6 µM (≈ 25 µg/mL)	223 µM (≈ 100 µg/mL)	43.57 µg/mL (≈ 97 µM)	45.56%	51.56%	57.57%	62.67%	205 to 208 °C	174 µM	–	–	–
CCCCCCCCCCCCCCCc1nnc(S)n1N=Cc1ccc(C)cc1 [Compound T3]	126 µM	28.2%	50%	65.9%	79.1%	117 µM (≈ 50 µg/mL)	58.3 µM (≈ 25 µg/mL)	58.3 µM (≈ 25 µg/mL)	117 µM (≈ 50 µg/mL)	233 µM (≈ 100 µg/mL)	34.38 µg/mL (≈ 80.2 µM)	43.56%	60.12%	75.67%	88.98%	190 to 193 °C	16.6 µM	–	–	–
CCCCCCCCCCCCCCCc1nnc(S)n1N=Cc1cccc(Br)c1 [Compound T13]	101 µM	26.6%	48.8%	74%	98.9%	203 µM (≈ 100 µg/mL)	203 µM (≈ 100 µg/mL)	101 µM (≈ 50 µg/mL)	203 µM (≈ 100 µg/mL)	101 µM (≈ 50 µg/mL)	36.40 µg/mL (≈ 73.8 µM)	43.46%	57.67%	73.76%	89.56%	197 to 200 °C	> 203 µM	–	–	–
CCCCCCCCCCCCCCCc1nnc(S)n1N=Cc1ccc([N+](=O)[O-])cc1 [Compound T17]	125 µM	37.9%	42.4%	57.6%	71.4%	218 µM (≈ 100 µg/mL)	218 µM (≈ 100 µg/mL)	54.3 µM (≈ 25 µg/mL)	27.1 µM (≈ 12.5 µg/mL)	109 µM (≈ 50 µg/mL)	–	48.75%	62.57%	78.16%	84.61%	206 to 209 °C	> 218 µM	–	–	–
CCCCCCCCCCCCCCCc1nnc(S)n1N=Cc1ccc(OC)c(OC)c1 [Compound T4]	106 µM	35.5%	49.5%	63.7%	79.5%	105 µM (≈ 50 µg/mL)	52.6 µM (≈ 25 µg/mL)	52.6 µM (≈ 25 µg/mL)	105 µM (≈ 50 µg/mL)	52.6 µM (≈ 25 µg/mL)	37.50 µg/mL (≈ 79 µM)	38.45%	58.34%	88.61%	98.89%	188 to 191 °C	7.79 µM	–	–	–
CCCCCCCCCCCCCCCc1nnc(S)n1N=Cc1ccc(O)cc1 [Compound T8]	131 µM	22.4%	39.6%	68.6%	92.7%	58 µM (≈ 25 µg/mL)	58 µM (≈ 25 µg/mL)	116 µM (≈ 50 µg/mL)	232 µM (≈ 100 µg/mL)	116 µM (≈ 50 µg/mL)	36.12 µg/mL (≈ 83.9 µM)	43.91%	58.67%	67.54%	82.57%	192 to 195 °C	> 232 µM	58.0 µM (≈ 25 µg/mL)	–	58.0 µM (≈ 25 µg/mL)

Source: paper PMC7818921, “Synthesis and biological evaluation of heterocyclic 1,2,4-triazole scaffolds as promising pharmacological agents” (BMC Chemistry, 2021)
